Measured values as given in patent US20250197372A1 (priority 2020, published 2025).

Legend:
[1] = target: recombinant human GAA (acid alpha-glucosidase) (Homo sapiens, UniProt P10253); assay: Acid alpha-glucosidase (GAA) assay (4-methylumbelliferyl-alpha-D-pyranoside substrate, fluorescence); assay type: biochemical
Description: Acid alpha-glucosidase (GAA): To analyze inhibitory effects of a test compound, commercially available recombinant human GAA was incubated with multiple dilutions of test compound for 60 minutes at 37° C. 4-methylumbelliferyl-alpha-D-pyranoside was then introduced to the mixture as the substrate. 1,4-methyllumbelliferone is generated, and after an incubation for 20 minutes at 37° C., the reaction was stopped with the stop solution (0.5M glycine 0.3M NaOH pH 10). 1,4-methyllumbelliferone is detected by fluorescence (excitation at 365 nm, emission at 440 nm). Relative fluorescence compared to untreated enzymatic activity and test compound concentration is plotted as a function of percent inhibition. The IC50 is determined using a 4-PL curve fit as the measure of relative inhibitory activity of each test compound (see Table 3).

[2] = target: rat sucrase (partially purified alpha-glucosidase from intestinal rat powder) (Rattus norvegicus, UniProt P23739); assay: Intestinal alpha-glucosidase assay, sucrose substrate (Glucose GO Kit); assay type: biochemical
rat sucrase (partially purified alpha-glucosidase from intestinal rat powder), sequence (P23739 whole entry): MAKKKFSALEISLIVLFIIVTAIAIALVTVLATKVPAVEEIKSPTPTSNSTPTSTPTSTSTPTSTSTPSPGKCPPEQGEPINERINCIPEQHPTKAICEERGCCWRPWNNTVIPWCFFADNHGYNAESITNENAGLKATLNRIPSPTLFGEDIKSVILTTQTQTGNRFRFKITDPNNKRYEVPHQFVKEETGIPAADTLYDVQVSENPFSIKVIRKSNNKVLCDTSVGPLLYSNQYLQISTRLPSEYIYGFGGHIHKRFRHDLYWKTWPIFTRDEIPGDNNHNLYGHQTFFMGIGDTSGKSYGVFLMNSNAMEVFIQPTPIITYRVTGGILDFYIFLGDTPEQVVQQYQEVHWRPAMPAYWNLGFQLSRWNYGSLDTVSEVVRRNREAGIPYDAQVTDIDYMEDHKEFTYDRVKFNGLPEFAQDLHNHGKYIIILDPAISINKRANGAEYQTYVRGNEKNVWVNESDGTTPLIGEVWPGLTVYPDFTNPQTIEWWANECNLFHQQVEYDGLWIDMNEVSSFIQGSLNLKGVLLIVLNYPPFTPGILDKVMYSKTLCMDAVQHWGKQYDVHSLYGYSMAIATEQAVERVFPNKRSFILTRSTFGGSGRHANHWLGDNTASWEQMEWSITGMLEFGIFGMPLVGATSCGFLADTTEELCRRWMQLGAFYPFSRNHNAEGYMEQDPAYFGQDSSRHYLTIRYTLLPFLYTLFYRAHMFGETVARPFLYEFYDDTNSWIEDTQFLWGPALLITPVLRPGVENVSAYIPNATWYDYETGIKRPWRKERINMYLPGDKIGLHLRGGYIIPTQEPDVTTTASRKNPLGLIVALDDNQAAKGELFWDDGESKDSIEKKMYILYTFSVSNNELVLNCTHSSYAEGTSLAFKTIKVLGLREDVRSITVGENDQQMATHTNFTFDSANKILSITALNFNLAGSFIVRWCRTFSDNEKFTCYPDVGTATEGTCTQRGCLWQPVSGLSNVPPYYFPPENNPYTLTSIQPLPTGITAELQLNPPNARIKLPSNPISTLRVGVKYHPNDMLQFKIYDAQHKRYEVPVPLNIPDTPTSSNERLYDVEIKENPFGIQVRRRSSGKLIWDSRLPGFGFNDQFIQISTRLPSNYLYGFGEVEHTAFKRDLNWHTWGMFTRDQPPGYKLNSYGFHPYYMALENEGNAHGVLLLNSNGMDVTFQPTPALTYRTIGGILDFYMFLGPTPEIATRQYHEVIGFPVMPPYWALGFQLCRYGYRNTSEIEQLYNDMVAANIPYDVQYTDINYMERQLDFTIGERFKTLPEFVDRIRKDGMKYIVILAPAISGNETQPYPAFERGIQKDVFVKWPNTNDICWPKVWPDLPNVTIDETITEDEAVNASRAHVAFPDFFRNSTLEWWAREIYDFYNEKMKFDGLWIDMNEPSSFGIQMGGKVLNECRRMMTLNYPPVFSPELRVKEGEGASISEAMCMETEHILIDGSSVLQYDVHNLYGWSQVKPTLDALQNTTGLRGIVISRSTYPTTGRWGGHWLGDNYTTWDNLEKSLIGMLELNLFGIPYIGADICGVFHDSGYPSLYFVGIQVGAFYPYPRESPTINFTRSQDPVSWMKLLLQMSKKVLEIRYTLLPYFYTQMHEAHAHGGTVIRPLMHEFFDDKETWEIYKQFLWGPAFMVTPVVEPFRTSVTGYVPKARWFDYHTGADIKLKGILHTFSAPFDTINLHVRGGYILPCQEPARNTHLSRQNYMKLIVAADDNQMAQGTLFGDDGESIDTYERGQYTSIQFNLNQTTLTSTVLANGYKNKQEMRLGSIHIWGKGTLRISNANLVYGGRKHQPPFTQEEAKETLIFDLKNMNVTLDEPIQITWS
Description: Intestinal alpha-glucosidases (rat maltase and sucrase): Intestinal alpha-glucosidases act upon 1,4-alpha-glucoside bonds, breaking down disaccharides to glucose. To perform this assay, partially purified alpha-glucosidase from intestinal rat powder was incubated for 60 minutes at 37° C. with multiple dilutions of test compounds. Maltose or Sucrose respectively was then introduced as substrate to the mixture and incubated for 30 minutes at 37° C. The reaction was stopped by a 5-minute incubation at 90° C. and the resultant glucose production is detected using Sigma's Glucose GO Kit. Percent inhibition was then plotted as a function of concentration for each test compound. The IC50 was determined using a 4-PL curve fit and serves as the measure of relative inhibition of each test compound (see Table 3).

Which IC50 [1] does the source give for `OC[C@@H]1[C@@H](O)[C@H](O)[C@@H](O)CN1CCc1ccc(CCNc2cc(Cl)cc(C3=CCOCC3)c2)cc1` [Compound 1160, (2R,3R,4R,5S)-1-{2-[4-(2-{[3-chloro-5-(3,6-dihydro-2H-pyran-4-yl)phenyl]amino}ethyl)phenyl]ethyl}-2-(hydroxymethyl)piperidine-3,4,5-triol] here?
The IC50 was 24 nM.

What about the IC50 [2] of the same compound?
The IC50 was 931 nM.

Which results are given for `OC[C@@H]1[C@@H](O)[C@H](O)[C@@H](O)CN1CCc1ccc(CCNc2cc(Cl)cc(-c3ncon3)c2)cc1` [Compound 1113, (2R,3R,4R,5S)-1-{2-[4-(2-{[3-chloro-5-(1,2,4-oxadiazol-3-yl)phenyl]amino}ethyl)phenyl]ethyl}-2-(hydroxymethyl)piperidine-3,4,5-triol]?
IC50 [1]: 380 nM; IC50 [2]: 74 nM

Which IC50 [1] does the source give for `OC[C@@H]1[C@@H](O)[C@H](O)[C@@H](O)CN1CCCCCCNc1cc(Cl)cc(-c2cnccn2)c1` [Compound 1196, (2R,3R,4R,5S)-1-(6-{[3-chloro-5-(pyrazin-2-yl)phenyl]amino}hexyl)-2-(hydroxymethyl)piperidine-3,4,5-triol] here?
Its IC50 is 10 nM.

And the IC50 [2]?
Its IC50 is 175 nM.

How did the IC50 [1] turn out when `COc1cc(NCCc2ccc(CCN3C[C@H](O)[C@@H](O)[C@H](O)[C@H]3CO)cc2)cc(C2=CCOCC2)c1` [Compound 1154, (2R,3R,4R,5S)-1-{2-[4-(2-{[3-(3,6-dihydro-2H-pyran-4-yl)-5-methoxyphenyl]amino}ethyl)phenyl]ethyl}-2-(hydroxymethyl)piperidine-3,4,5-triol] was run?
The IC50 was 296 nM.

What about the IC50 [2] of the same compound?
Its IC50 is 2880 nM.

Which IC50 [1] does the source give for `COc1cc(NCCCCCCN2C[C@H](O)[C@@H](O)[C@H](O)[C@H]2CO)cc(C2CCCCC2)c1` [Compound 1148, (2R,3R,4R,5S)-1-{6-[(3-cyclohexyl-5-methoxyphenyl)amino]hexyl}-2-(hydroxymethyl)piperidine-3,4,5-triol] here?
The IC50 was 88 nM.

And the IC50 [2]?
The IC50 was 1 nM.

Which IC50 [1] does the source give for `COc1cc(-c2ncco2)ccc1NCCCCCCN1C[C@H](O)[C@@H](O)[C@H](O)[C@H]1CO` [Compound 1207, (2R,3R,4R,5S)-2-(hydroxymethyl)-1-(6-{[2-methoxy-4-(1,3-oxazol-2-yl)phenyl]amino}hexyl)piperidine-3,4,5-triol] here?
Its IC50 is 75 nM.

And the IC50 [2]?
The IC50 was 71 nM.

What does the source list for `OC[C@@H]1[C@@H](O)[C@H](O)[C@@H](O)CN1CCc1ccc(CCNc2cc(Cl)cc(-c3ccco3)c2)cc1` [Compound 1159, (2R,3R,4R,5S)-1-{2-[4-(2-{[3-chloro-5-(furan-2-yl)phenyl]amino}ethyl)phenyl]ethyl}-2-(hydroxymethyl)piperidine-3,4,5-triol]?
IC50 [1]: < 1 nM; IC50 [2]: 847 nM

Which IC50 [1] does the source give for `OC[C@@H]1[C@@H](O)[C@H](O)[C@@H](O)CN1CCCCCCNc1ccc(-c2cnccn2)cc1Cl` [Compound 1198, (2R,3R,4R,5S)-1-(6-{[2-chloro-4-(pyrazin-2-yl)phenyl]amino}hexyl)-2-(hydroxymethyl)piperidine-3,4,5-triol] here?
Its IC50 is 47 nM.

And the IC50 [2]?
The IC50 was 1 nM.

Which IC50 [1] does the source give for `COc1cc(NCCCCCCN2C[C@H](O)[C@@H](O)[C@H](O)[C@H]2CO)cc(C2=CCCO2)c1` [Compound 1147, (2R,3R,4R,5S)-1-(6-{[3-(4,5-dihydrofuran-2-yl)-5-methoxyphenyl]amino}hexyl)-2-(hydroxymethyl)piperidine-3,4,5-triol] here?
The IC50 was 38 nM.

What about the IC50 [2] of the same compound?
Its IC50 is 40 nM.

How did the IC50 [1] turn out when `CS(=O)(=O)c1cc(NCCCCCCN2C[C@H](O)[C@@H](O)[C@H](O)[C@H]2CO)cc(-c2ncccn2)c1` [Compound 1128, (2R,3R,4R,5S)-2-(hydroxymethyl)-1-(6-{[3-methanesulfonyl-5-(pyrimidin-2-yl)phenyl]amino}hexyl)piperidine-3,4,5-triol] was run?
The IC50 was 5 nM.

What about the IC50 [2] of the same compound?
The IC50 was 39 nM.

Which results are given for `[N-]=[N+]=Nc1ccc(NCc2ccc(CN3C[C@H](O)[C@@H](O)[C@H](O)[C@H]3CO)cc2)c([N+](=O)[O-])c1` [Compound 1170, (2R,3R,4R,5S)-1-[(4-{[(4-azido-2-nitrophenyl)amino]methyl}phenyl)methyl]-2-(hydroxymethyl)piperidine-3,4,5-triol]?
IC50 [1]: 81 nM; IC50 [2]: 2 nM

Which IC50 [1] does the source give for `OC[C@@H]1[C@@H](O)[C@H](O)[C@@H](O)CN1Cc1ccc(CNc2ccc(N3CCOCC3)cc2)cc1` [Compound 1068] here?
Its IC50 is 386 nM.

And the IC50 [2]?
The IC50 was 141 nM.

What does the source list for `[N-]=[N+]=Nc1ccc(NCCc2cc(CCN3C[C@H](O)[C@@H](O)[C@H](O)[C@H]3CO)cs2)c([N+](=O)[O-])c1` [Compound 1179, (2R,3R,4R,5S)-1-[2-(5-{2-[(4-azido-2-nitrophenyl)amino]ethyl}thiophen-3-yl)ethyl]-2-(hydroxymethyl)piperidine-3,4,5-triol]?
IC50 [1]: 692 nM; IC50 [2]: 181 nM

What does the source list for `N#Cc1cc(Cl)cc(NCCc2ccc(CCN3C[C@H](O)[C@@H](O)[C@H](O)[C@H]3CO)cc2)c1` [Compound 1134, 3-chloro-5-{[2-(4-{2-[(2R,3R,4R,5S)-3,4,5-trihydroxy-2-(hydroxymethyl)piperidin-1-yl]ethyl}phenyl)ethyl]amino}benzonitrile]?
IC50 [1]: 167 nM; IC50 [2]: 259 nM

What does the source list for `OC[C@@H]1[C@@H](O)[C@H](O)[C@@H](O)CN1CCCCCCNc1ccc(-c2ncco2)cc1Cl` [Compound 1203, (2R,3R,4R,5S)-1-(6-{[2-chloro-4-(1,3-oxazol-2-yl)phenyl]amino}hexyl)-2-(hydroxymethyl)piperidine-3,4,5-triol]?
IC50 [1]: 40 nM; IC50 [2]: 11 nM

How did the IC50 [1] turn out when `COc1cc(NCCc2ccc(CCN3C[C@H](O)[C@@H](O)[C@H](O)[C@H]3CO)cc2)cc(C2=COCCO2)c1` [Compound 1155, (2R,3R,4R,5S)-1-{2-[4-(2-{[3-(5,6-dihydro-1,4-dioxin-2-yl)-5-methoxyphenyl]amino}ethyl)phenyl]ethyl}-2-(hydroxymethyl)piperidine-3,4,5-triol] was run?
Its IC50 is 455 nM.

And the IC50 [2]?
The IC50 was 726 nM.

`[N-]=[N+]=Nc1ccc(NCCc2ccc(CCN3C[C@H](O)[C@@H](O)[C@H](O)[C@H]3CO)c3c2OCCO3)c([N+](=O)[O-])c1` [Compound 1173, (2R,3R,4R,5S)-1-[2-(8-{2-[(4-azido-2-nitrophenyl)amino]ethyl}-2,3-dihydro-1,4-benzodioxin-5-yl)ethyl]-2-(hydroxymethyl)piperidine-3,4,5-triol] was tested. Which IC50 [1] did it give?
Its IC50 is 1800 nM.

And the IC50 [2]?
The IC50 was 456 nM.

Which IC50 [1] does the source give for `[N-]=[N+]=Nc1ccc(NCCNc2cc(Cl)cc(CCN3C[C@H](O)[C@@H](O)[C@H](O)[C@H]3CO)c2)c([N+](=O)[O-])c1` [Compound 1143, (2R,3R,4R,5S)-1-{2-[3-({2-[(4-azido-2-nitrophenyl)amino]ethyl}amino)-5-chlorophenyl]ethyl}-2-(hydroxymethyl)piperidine-3,4,5-triol] here?
The IC50 was 796 nM.

What about the IC50 [2] of the same compound?
The IC50 was 2010 nM.

What does the source list for `COc1cc(CC2CCOC2)cc(NCCCCCCN2C[C@H](O)[C@@H](O)[C@H](O)[C@H]2CO)c1` (stereo partly drawn) [Compound 1141, (2R,3R,4R,5S)-2-(hydroxymethyl)-1-[6-({3-methoxy-5-[(oxolan-3-yl)methyl]phenyl}amino)hexyl]piperidine-3,4,5-triol]?
IC50 [1]: 188 nM; IC50 [2]: 696 nM

What does the source list for `[N-]=[N+]=Nc1ccc(NCCc2cc(Br)cc(CCN3C[C@H](O)[C@@H](O)[C@H](O)[C@H]3CO)c2)c([N+](=O)[O-])c1` [Compound 1140, (2R,3R,4R,5S)-1-[2-(3-{2-[(4-azido-2-nitrophenyl)amino]ethyl}-5-bromophenyl)ethyl]-2-(hydroxymethyl)piperidine-3,4,5-triol]?
IC50 [1]: 2090 nM; IC50 [2]: 4140 nM

What does the source list for `COCCc1ccc(CCCCCN2C[C@H](O)[C@@H](O)[C@H](O)[C@H]2CO)cc1` [Compound 1307, (2R,3R,4R,5S)-2-(hydroxymethyl)-1-{5-[4-(2-methoxyethyl)phenyl]pentyl}piperidine-3,4,5-triol]?
IC50 [1]: 950 nM; IC50 [2]: 387 nM

With `COc1cc(-c2cnccn2)ccc1NCCCCCCN1C[C@H](O)[C@@H](O)[C@H](O)[C@H]1CO` [Compound 1199, (2R,3R,4R,5S)-2-(hydroxymethyl)-1-(6-{[2-methoxy-4-(pyrazin-2-yl)phenyl]amino}hexyl)piperidine-3,4,5-triol] as the compound, how does the IC50 [1] read?
Its IC50 is 43 nM.

And the IC50 [2]?
The IC50 was 16 nM.

What does the source list for `OC[C@@H]1[C@@H](O)[C@H](O)[C@@H](O)CN1CCc1ccc(CCNc2cc(Cl)cc(C3=COCCO3)c2)cc1` [Compound 1161, (2R,3R,4R,5S)-1-{2-[4-(2-{[3-chloro-5-(5,6-dihydro-1,4-dioxin-2-yl)phenyl]amino}ethyl)phenyl]ethyl}-2-(hydroxymethyl)piperidine-3,4,5-triol]?
IC50 [1]: 84 nM; IC50 [2]: 740 nM

For `Cc1cc(-c2ccco2)ccc1NCc1ccc(CN2C[C@H](O)[C@@H](O)[C@H](O)[C@H]2CO)cc1` [Compound 1324, (2R,3R,4R,5S)-1-{[4-({[4-(furan-2-yl)-2-methylphenyl]amino}methyl)phenyl]methyl}-2-(hydroxymethyl)piperidine-3,4,5-triol], which IC50 [1] is on record?
Its IC50 is 80 nM.

And the IC50 [2]?
Its IC50 is under 1 nM.

`COc1cc(NCCc2ccc(CCN3C[C@H](O)[C@@H](O)[C@H](O)[C@H]3CO)cc2)cc(-c2ncccn2)c1` [Compound 1156, (2R,3R,4R,5S)-2-(hydroxymethyl)-1-{2-[4-(2-{[3-methoxy-5-(pyrimidin-2-yl)phenyl]amino}ethyl)phenyl]ethyl}piperidine-3,4,5-triol] was tested. Which IC50 [1] did it give?
Its IC50 is 814 nM.

And the IC50 [2]?
The IC50 was 610 nM.
